In paper PMC6193465 (Journal of the American Chemical Society, 2018):
Read-outs that look alike come from different tables or passages of the source. Where no end group is shown, it is not given here.

Key:
[1] = aqueous solubility; assay type: physicochemical
[2] = test system: indicator bacterial strains; assay: antibacterial activity, minimum inhibitory concentrations; assay type: cell-based; conditions: range over the strains tested (Table S5)
[3] = test system: prokaryotic protein synthesis; assay: in vitro transcription-translation assay; assay type: biochemical; conditions: read-out: half-maximum inhibitory concentration, inhibition of prokaryotic protein synthesis
[4] = comparison value for 1; cited from earlier work

Substance	aqueous solubility [1] [µM]	minimum inhibitory concentrations [2] [µg/mL]	minimum inhibitory concentrations ([2]; in molar units) [µM]	IC50 [3] [nM]	aqueous solubility [4] [µM]
thiostrepton Aa [compound 7]	26.01 ± 0.05	0.018 to 0.098	0.010 to 0.058	260 ± 40	
IASASCTTCICTCSCSS (also: bicyclic or more (positions not given here)) [compound 1, thiostrepton A, reference compound]				500 ± 40	21.88 ± 0.05
